Laboratory results from patent publication US20160120894A1, “USE OF ADENOSINE ASPARTATE IN THE DI[…] M[…] INFLAMMATORY-[…] AND ITS REVERSAL” (UNIVERSIDAD NACIONAL AUTÓNOMA DE MÉXICO, priority 2013, published 2016).
Entries after “also recorded” stand apart in the source; their conditions may differ.

Columns and labels:
[1] = tested on: cytokines in liver homogenate; assay: Prevention of CCl4-induced cirrhosis: cytokines in liver homogenate by Luminex; type: in vivo, rats; conditions: CCl4+IFC-305 50 mg/Kg, 8 weeks
Text: FIGS. 2A and 2B refer to the results obtained for cytokines in liver homogenate evaluated by Luminex® at 8 weeks of administration of CCl4 and CCl4+IFC-305. Concentration (pg/mL)±standard deviation is shown.
(§1) Cirrhosis is a disease chronic degenerative characterized by diffuse fibrosis and regenerative nodules distorting tissue architecture. The diffuse fibrosis is supported by a chronic inflammatory process. During this process, chemokines and cytokines that favor this process are generated. In a model of prevention of cirrhosis by treatment with adenosine aspartate, knowing having an antifibrogenic effect, would allow knowing the effect of this drug during the establishment of cirrhosis for 4, 6 and 8 weeks and its effect on response activation immune and inflammation.
(§2) In this study, four groups of six male rats of 100 g to 110 g were formed; the rats were treated simultaneously under the same doses with CCl4 (25 μl of carbon tetrachloride in vegetable oil) and IFC-305 (50 mg/Kg). All treatments were given three times a week for 4, 6 and 8 weeks; at the moment of sacrifice, of serum and liver were taken.

[2] = tested on: total macrophages (HIS36+/CD11b+) and inflammatory phenotype Kupffer cells (CD163+/CD11b/c+ (M1)); assay: Reversal of established CCl4 cirrhosis: distribution of liver macrophages by flow cytometry; type: in vivo, Wistar rats; conditions: cirrhotic rats, IFC-305 50 mg/kg i.p., five and ten weeks
Method: FIGS. 6A and 6B relate to the obtained results regarding the distribution of macrophages. […] Percentage (%) of Kupffer cells with respect to control±standard error.
(§3) 100 g male Wistar rats were used, with free access to food and water. Cirrhosis was induced with 25 μl of CCl4 in vegetable oil three times a week for ten weeks. Once cirrhosis is established, the animals were divided into five groups: group I, treatment with CCl4 is suspended, control animals of cirrhosis are sacrificed, groups II and III is allowed to proceed cirrhosis and received three intraperitoneal injections of saline per week for 5 to 10 weeks, groups IV and V received three intraperitoneal injections of the compound at a dose of 50 mg/kg for 5 to 10 weeks; at the moment of sacrifice, serum and liver samples taken.

[3] = tested on: Kupffer cells (CD163+/CD11b+); assay: Prevention of CCl4-induced cirrhosis: kinetic of Kupffer cells in the liver by flow cytometry; type: in vivo, rats; conditions: CCl4+IFC-305 vs CCl4; 4, 6, 8 and 10 weeks
Method: FIG. 5 refers to the kinetic of Kupffer cells (CD163+/CD11b+) in the liver, assessed by flow cytometry at 4, 6, 8 and 10 weeks, administration with CCl4, IFC-305 and CCl4+IFC-305 to same time. % Kupffer cells±standard error.
as §2
FIG. 5 refers to a graphic showing the total number of Kupffer cells quantified with CD163+/CD11b/c+ for 4, 6, 8 and 10 weeks of treatment with CCl4, with an increase during the development of cirrhosis that decreases with the treatment of the compound IFC-305.

serum cytokine = assay: Prevention of CCl4-induced cirrhosis: serum cytokines by Luminex; type: in vivo, rats
Text: FIGS. 1A to 1C refer to the obtained results for serum cytokine evaluated by Luminex® at 4, 6 and 8 weeks of administration of CCl4 and CCl4+IFC. Concentration (pg/mL)±standard deviation is shown.
as §1, §2

Arginase I = assay: Reversal of established CCl4 cirrhosis: Western blot of Arginase I in liver homogenate; type: in vivo, Wistar rats; conditions: cirrhotic rats, IFC-305 50 mg/kg i.p., five and ten weeks
Method: FIG. 7 refers to Western blot Arginase I. Expression of total protein in liver homogenate in the different experimental groups treated with IFC-305 and saline for five and ten weeks.
as §3

[4] = tested on: cytokines in liver homogenate; assay: Reversal of established CCl4 cirrhosis: cytokines in liver homogenate by Luminex; type: in vivo, Wistar rats; conditions: cirrhotic rats, IFC-305 50 mg/kg i.p.
Method: FIGS. 4A to 4D refer to the obtained results for cytokines in liver homogenate evaluated by Luminex® in the different experimental groups of cirrhotic animals (Ci) treated with IFC-305 and saline for five and ten weeks (Ci SS 5s, Ci IFC 5s, Ci SS 10s, and Ci IFC 10s). Concentration (pg/mL)±standard deviation is shown.
as §3

serum cytokines = assay: Reversal of established CCl4 cirrhosis: serum cytokines by Luminex; type: in vivo, Wistar rats; conditions: cirrhotic rats, IFC-305 50 mg/kg i.p. three times a week vs saline
Method: FIGS. 3A to 3C refer to the obtained results for serum cytokines evaluated by Luminex® in the different experimental groups of cirrhotic animals (Ci) treated with IFC-305 and saline for five and ten weeks (Ci SS 5s, Ci IFC 5s, Ci SS 10s and Ci IFC 10s post-treatment with CCl4). Concentration (pg/mL)±standard deviation is shown.
as §3

[5] = CCl4+IFC-305 50 mg/Kg three times a week vs CCl4, 4, 6 and 8 weeks

## adenosine aspartate [IFC-305]
[1]
  liver homogenate IL-1β: decreases
  liver homogenate IL-4: decreases
  liver homogenate IL-6: increase relative to the control
  liver homogenate IL-10: decreases
  liver homogenate IL-12: increase relative to the control
  liver homogenate INF-γ: increase relative to the control
  liver homogenate MCP-1: increase relative to the control
[1]; listed as adenosine aspartate
  liver homogenate IL-6: increase
[2]
  Kupffer cells with inflammatory phenotype (M1) CD163+/CD11b/c+: decrease; also recorded: decreasing during the progression of cirrhosis and markedly with the treatment
  total macrophages (HIS36+/CD11b+) in the liver: increases
[3]
  total number of Kupffer cells (CD163+/CD11b/c+) in the liver: decreases
Serum cytokine; [5]
  serum IL-1β: decreasing
  serum IL-4: decreasing; also recorded: decreased
Serum cytokine; CCl4+IFC-305 50 mg/Kg vs CCl4, 4 and 6 weeks
  serum IL-6: decreasing; also recorded: decrease
Serum cytokine; CCl4+IFC-305 50 mg/Kg, 8 weeks
  serum IL-6: increase
Arginase I
  arginase (Arginase I) protein in liver homogenate, Western blot: more amount of enzyme
Arginase I; 50 mg/kg
  arginase (Arginase I) protein in liver homogenate, Western blot: increased
[4]; 5 to 10 weeks
  inflammatory cytokines in liver homogenate (cirrhosis high values): reduced
[4]; five and ten weeks
  liver homogenate IL-1β: decreased compared to cirrhotic control
  liver homogenate IL-4: decreased compared to cirrhotic control
  liver homogenate IL-6: regulated
[4]; five and ten weeks, 50 mg/kg
  IL-10 (anti-inflammatory cytokine), liver homogenate: increased
Serum cytokines; 5 weeks
  serum IL-4: kept in similar values to controls or less; also recorded: maintained in an equal range to the control or lower
  serum IL-6: kept in similar values to controls or less; also recorded: maintained in an equal range to the control or lower
Serum cytokines; 10 weeks
  serum IL-1β: kept in similar values to controls or less; also recorded: maintained in an equal range to the control or lower
